Measured values taken from a melting point compilation (Tetko et al.; mined from patent text by program, amines drawn as free bases though some values may be those of a salt).

Q: For `Cc1ccc(S(=O)(=O)OC2CON(C(=O)OC(C)(C)C)C2)cc1` (stereo not given), which melting point is on record?
A: The melting point was 63 to 65 °C.

Q: With `Cc1ccc(Cn2[nH]c(N)cc2=O)cc1Cl` as the molecule, how does the melting point read?
A: The melting point was 130 to 131 °C.

Q: For `O=c1cc(N2CCOCC2)oc2ccc(Cl)cc12`, which melting point is on record?
A: The melting point was 194 to 195 °C.

Q: With `COc1cccc(-n2c(=O)oc3ccc(-c4ccc(F)cc4F)cc3c2=O)c1` as the molecule, how does the melting point read?
A: Its melting point is 160 to 161 °C.

Q: For `CCOC(=O)CC(=O)Nc1ccc(Cl)cc1`, which melting point is on record?
A: Its melting point is 82 °C.

Q: With `COC(=O)c1cc(NC(=O)c2ccc(Cl)cc2)c2cc(Cc3ccc(F)cc3)cnc2c1O` as the molecule, how does the melting point read?
A: The melting point was 253 to 254 °C.

Q: For `CCCCC1OC(=O)c2cc(N)c(N)cc21` (stereo not given), which melting point is on record?
A: Its melting point is 94 to 96 °C.

Q: For `CCc1c(C(=O)OC(C)C)ncc2[nH]c3ccc4nc(C)cnc4c3c12`, which melting point is on record?
A: Its melting point is 236 to 238 °C.

Q: Which melting point does the source give for `Cc1cc2c(cc1C)N(C)C(=O)C(CC(=O)O)C2c1ccccc1Cl` (stereo not given) here?
A: The melting point was 210 to 215 °C.

Q: For `O=c1[nH]c2cc(Cl)cc(Cl)c2c(=O)n1Cc1ccccc1`, which melting point is on record?
A: Its melting point is 260 to 265 °C.

Q: With `CCCNC(=O)N(Cc1ccc(C)cc1)NC(=O)OC(C)(C)C` as the molecule, how does the melting point read?
A: Its melting point is 87.8 to 89.4 °C.

Q: Which melting point does the source give for `COc1cc2cc(C(=O)Nc3cc(OCc4ccccc4)c4ccccc4c3CCCl)[nH]c2c(OC)c1OC` here?
A: The melting point was 180 to 184 °C.

Q: With `Cc1ccc(C(=O)N[C@H](CSCC(=O)OC(C)(C)C)CC(C)C)s1` as the molecule, how does the melting point read?
A: The melting point was 81 to 83 °C.

Q: For `Cc1cc(C)c(C)c(COc2cccc(-c3c(-c4ccccc4)coc3C(=O)NNC(=O)c3ccc(O)c([N+](=O)[O-])c3)c2)c1C`, which melting point is on record?
A: The melting point was 130 to 132 °C.

Q: For `CCOC(=O)C1=C(C)NC(=S)N(C(=O)OCC)C1c1cccc(C#N)c1` (stereo not given), which melting point is on record?
A: Its melting point is 155 to 156 °C.

Q: For `CCCCCCCOc1ccc(C(=O)O)c(Cl)c1`, which melting point is on record?
A: The melting point was 76 to 78 °C.

Q: With `Cc1oc(-c2ccccc2)nc1CCOc1cc(CO)on1` as the molecule, how does the melting point read?
A: Its melting point is 115 to 116 °C.

Q: Which melting point does the source give for `CC1OC(c2ccccc2Cl)c2cc(Cl)ccc2NC1=O` (stereo not given) here?
A: Its melting point is 214 to 215 °C.

Q: Which melting point does the source give for `Nc1ncnc2c1ncn2OCC(O)CCP(=O)(O)O` (stereo not given) here?
A: The melting point was 265 to 267 °C.

Q: For `COCCc1nc2c(N)nc3cc(-c4cncc(CO)c4)ccc3c2n1CC(C)C`, which melting point is on record?
A: Its melting point is 202 to 204 °C.

Q: Which melting point does the source give for `N#CNc1nc2c(s1)Cc1cc(Cl)ccc1-2` here?
A: The melting point was 225 °C.

Q: For `CN(C)c1ccc(NC(=O)N(C)c2cccc(-c3ccc(CC4SC(=O)NC4=O)cc3)c2)cc1` (stereo not given), which melting point is on record?
A: The melting point was 102 °C.

Q: With `COc1ccc(Oc2cccc(NC(=O)c3ccn4c3CSC4c3cccnc3)c2)cc1` (stereo not given) as the molecule, how does the melting point read?
A: Its melting point is 120 °C.

Q: Which melting point does the source give for `CCOC(=O)C(C)(C)c1ccc2c(c1)N(CC(C)N(C)C)c1ccccc1S2` (stereo not given) here?
A: The melting point was 107 to 110 °C.

Q: Which melting point does the source give for `CCCCc1nn(-c2cc(N)ccc2Cl)c(=O)n1Cc1ccc(-c2ccccc2S(=O)(=O)NC(=O)OC(C)(C)C)cc1` here?
A: The melting point was 185 to 188 °C.

Q: For `COc1cc(NNc2nccc(Nc3ccc(N(C)C)cc3)n2)cc(OC)c1OC`, which melting point is on record?
A: Its melting point is 212 °C.

Q: For `O=S(=O)(C=Cc1ccccc1)On1nnc2ccccc21`, which melting point is on record?
A: Its melting point is 102 to 103 °C.

Q: With `O=C(O)c1ccc(C(=O)/C=C/c2ccc(-c3nccs3)cc2)cc1` as the molecule, how does the melting point read?
A: Its melting point is 232 to 235 °C.

Q: For `COC(=O)c1ccc(CN([C@@H](CO)Cc2ccccc2)S(=O)(=O)c2ccc(Cl)cc2)cc1`, which melting point is on record?
A: The melting point was 128 to 130 °C.

Q: For `CN1CCCN(c2ccc(/C=C/c3cc(/C=C/c4ccc5cc[nH]c5c4)[nH]n3)c(Br)c2)CC1`, which melting point is on record?
A: Its melting point is 132 to 136 °C.

Q: Which melting point does the source give for `O=C1CNc2ncc(-c3cnc4[nH]ccc4c3)nc2N1CCC1CCOCC1` here?
A: The melting point was 255 to 258 °C.

Q: Which melting point does the source give for `CCCCCCCOc1ccc(C2CCC(=O)O2)cc1` (single isomer, unassigned) here?
A: Its melting point is 44 °C.

Q: For `COc1ccc2cc([C@H](C)C(=O)OCCO)ccc2c1`, which melting point is on record?
A: The melting point was 72 to 73 °C.

Q: With `Oc1ccc(OCCCCCCCCOc2ccc(O)cc2)cc1` as the molecule, how does the melting point read?
A: The melting point was 151 to 154 °C.

Q: Which melting point does the source give for `CCCc1c(OCC(O)CSc2ccc(C(=O)CCC(=O)O)cc2)ccc(C(C)=O)c1O` (stereo not given) here?
A: Its melting point is 115 to 116 °C.

Q: For `O=C(O)CSc1nc(-c2ccc(Cl)cc2)no1`, which melting point is on record?
A: Its melting point is 112 to 114 °C.

Q: Which melting point does the source give for `C#Cc1cc2c(=O)nc(CCCC)[nH]c2cc1F` here?
A: Its melting point is 218 °C.

Q: Which melting point does the source give for `CCOC(=O)C1=C(CO)NC(C)=C(C(=O)OCCO)C1c1ccccc1[N+](=O)[O-]` (stereo not given) here?
A: The melting point was 167 to 169 °C.

Q: Which melting point does the source give for `CCn1c(C(OCCO)(c2cccc(C(F)(F)F)c2)c2cccc(C(F)(F)F)c2)nc(-c2ccncc2)c1-c1ccc(Cl)cc1` here?
A: Its melting point is 222 to 223 °C.

Q: With `O=C1CSCN1CCCCN1CCN(c2ccc(F)cc2)CC1` as the molecule, how does the melting point read?
A: Its melting point is 83 to 85 °C.

Q: Which melting point does the source give for `CCOC(=O)CCC(=O)c1ccc(C2CCCCC2)cc1` here?
A: Its melting point is 54 to 55 °C.

Q: Which melting point does the source give for `COc1cc(-c2ccccc2)c([N+](=O)[O-])cc1OC` here?
A: Its melting point is 113 to 115 °C.

Q: For `COc1ccc2c(c1)N(c1cccc(Cl)c1)C(=O)C2(C)NC(=O)OCc1ccccc1` (stereo not given), which melting point is on record?
A: Its melting point is 143 to 144 °C.

Q: With `Cn1c(=O)c2[nH]c(C=Cc3cccc([N+](=O)[O-])c3)nc2n(C)c1=O` as the molecule, how does the melting point read?
A: The melting point was > 300 °C.

Q: For `CCOC(=O)c1ccc(C(NCC(=O)Nc2c(C(C)C)cccc2C(C)C)c2ccccc2)cc1` (stereo not given), which melting point is on record?
A: The melting point was 139 to 140 °C.

Q: For `CC(=O)Nc1ccc(CCCON2CCC(C(=O)c3nc4ccccc4s3)CC2)cc1`, which melting point is on record?
A: Its melting point is 171 to 172 °C.

Q: Which melting point does the source give for `Cc1cccc(NC(=O)n2nc(Oc3cccc(C(F)(F)F)c3)cc2C)c1` here?
A: Its melting point is 47 to 49 °C.

Q: Which melting point does the source give for `CSC(=C[N+](=O)[O-])NCCN(C)Cc1ccc(Cl)nc1` here?
A: Its melting point is 93 to 95 °C.

Q: With `C=C(C)CN1Cc2cc(Cl)cc3[nH]c(=O)n(c23)CC1C` (stereo not given) as the molecule, how does the melting point read?
A: The melting point was 175 °C.

Q: Which melting point does the source give for `CCOC(=O)c1cn(-c2nc(NCc3ccc(OC)cc3)c(F)cc2F)c2c(Cl)c(F)c(F)cc2c1=O` here?
A: Its melting point is 197 to 200 °C.
